According to paper PMC5867622, “Microginins from a Microcystis sp. Bloom Material Collected from the Kishon Reservoir, Israel” (Marine Drugs, 2018):
Where two headings read alike, the source gives them in different places. Blank lines part the entries; values can stand above or below the molecule they belong to. Square brackets hold non-standard residues; d marks the D form. Peptide text beside a SMILES is read from it. * marks the point of attachment. X13 = CN[C@H](CCCCCCC(Cl)Cl)[C@@H](O)C(=O)*; X4 = CN[C@H](CCCCCCCCl)[C@@H](O)C(=O)*; X7 = N[C@H](CCCCCCCCl)[C@@H](O)C(=O)*; NMeY = CN[C@@H](Cc1ccc(O)cc1)C(=O)O; X17 = CCCCC[C@H](N)[C@H](O)C(=O)*; NMeI = CC[CH](C)[CH](NC)C(=O)O; NMeL = CN[C@@H](CC(C)C)C(=O)O; X11 = CCCCCCCC(NC)C(O)C(=O)*; X5 = NC(CCCCCCCCl)C(O)C(=O)*; X16 = CCCCCC(NC)C(O)C(=O)*; X8 = CCCCCCCC(N)C(O)C(=O)*

How the values were obtained:
APN = conditions: Table S1, cited from earlier work
mAPM = test system: mAPM; set-up: method as in earlier work; conditions: Table S1; ref 3 (Neumann et al., FEMS Microbiol. Lett. 1997); cited from earlier work
ACE = conditions: Table S1; ref 3 (Neumann et al., FEMS Microbiol. Lett. 1997); cited from earlier work
cAPM = test system: cAPM; set-up: method as in earlier work; conditions: Table S1; ref 3 (Neumann et al., FEMS Microbiol. Lett. 1997); cited from earlier work
[1] = biological target: T1, porcine kidney microsomal aminopeptidase M (Sus scrofa, UniProt P15145); assay: Aminopeptidase M inhibitory assay; assay type: biochemical
T1 construct: purchased Sigma-Aldrich (St. Louis, MO, USA); host or cells: porcine kidney microsomes
T1 sequence (P15145 1-963): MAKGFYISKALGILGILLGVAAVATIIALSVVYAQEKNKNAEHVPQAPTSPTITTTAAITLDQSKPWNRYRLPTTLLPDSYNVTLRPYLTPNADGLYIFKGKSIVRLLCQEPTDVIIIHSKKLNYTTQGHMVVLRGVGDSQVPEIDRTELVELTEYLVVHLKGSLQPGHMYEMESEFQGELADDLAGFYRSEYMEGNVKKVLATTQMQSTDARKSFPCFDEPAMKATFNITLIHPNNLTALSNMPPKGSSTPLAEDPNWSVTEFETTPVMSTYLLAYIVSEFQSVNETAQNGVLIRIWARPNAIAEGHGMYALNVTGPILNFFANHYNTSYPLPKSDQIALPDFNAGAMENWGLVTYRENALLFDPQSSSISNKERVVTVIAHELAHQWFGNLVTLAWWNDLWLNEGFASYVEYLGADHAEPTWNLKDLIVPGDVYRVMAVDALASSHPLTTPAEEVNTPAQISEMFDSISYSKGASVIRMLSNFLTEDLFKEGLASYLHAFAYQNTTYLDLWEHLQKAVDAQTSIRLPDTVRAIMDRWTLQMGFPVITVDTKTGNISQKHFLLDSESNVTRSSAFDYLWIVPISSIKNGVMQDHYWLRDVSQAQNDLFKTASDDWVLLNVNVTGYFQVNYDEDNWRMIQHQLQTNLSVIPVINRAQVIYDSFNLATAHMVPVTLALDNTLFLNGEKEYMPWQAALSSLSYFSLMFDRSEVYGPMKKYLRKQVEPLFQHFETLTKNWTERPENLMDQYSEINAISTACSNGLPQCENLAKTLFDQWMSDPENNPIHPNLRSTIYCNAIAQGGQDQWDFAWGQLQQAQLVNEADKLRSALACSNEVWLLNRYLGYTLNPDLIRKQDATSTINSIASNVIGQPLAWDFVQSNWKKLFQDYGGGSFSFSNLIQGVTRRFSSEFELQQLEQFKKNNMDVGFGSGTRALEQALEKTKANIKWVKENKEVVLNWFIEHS
Protocol: Aminopeptidase M inhibitory activity was determined according to the procedure described by Ishida et al.. A reaction mixture composed of 20 μL of L-leucine-p-nitroanilide (2 mM in 0.1 M Tris-HCl buffer at pH 7.0), 50 μL of 0.1 M Tris-HCl buffer (pH 7.0) and 20 μL of test solution was added to each well of a 96-well microtiter plate. The plate was incubated at 37 °C for 5 min; thereafter, 10 μL of porcine kidney microsomal aminopeptidase M [EC Number 232-942-5, Sigma-Aldrich (St. Louis, MO, USA), […] in 3.5 M (NH4)2SO4] was added to each well, and the absorbance at 405 nm was measured for 30 min. The microginin samples were dissolved in DMSO at a concentration of 1 mg/mL, and the IC50 values were determined by analysis of a series of dilutions (from 45.5 μM to 0.00069 μM). A sigmoidal curve of the enzyme inhibition versus the concentration of the inhibitor was observed that was fit to a 4-parameter logistic model.

[2] = read-out: Activity: APM, Table S1, source 14 = this manuscript
[3] = read-out: IC50 in μM ± SD, Table 4, substrate L-leucine-p-nitroanilide, Tris-HCl pH 7.0, 37 °C
[4] = Activity: APM, Table S1, source 14 = this manuscript
[5] = IC50 in μM ± SD, Table 4, substrate L-leucine-p-nitroanilide, Tris-HCl pH 7.0, 37 °C

Molecule: CCC(C)C(C(=O)N1CCCC1C(=O)NC(Cc1ccc(O)cc1)C(=O)O)N(C)C(=O)C(Cc1ccc(O)cc1)NC(=O)C(O)C(N)CCCCCCCCl (stereo not shown) [Microginin HG787] (X5-Y[NMeI]PY-OH; configuration not given here)
IC50 (APN; ref 11 (Lifshits et al., Tetrahedron 2011)): 7700 nM

Molecule: CCCCCC(NC)C(O)C(=O)N[C@H](C(=O)N(C)[C@H](C(=O)N(C)[C@@H](Cc1ccc(O)cc1)C(=O)N[C@@H](Cc1ccc(O)cc1)C(=O)O)[C@@H](C)CC)C(C)C (stereo partly shown) [Microginin SD755] (X16-V[NMeI][NMeY]Y-OH)
IC50 (APN; ref 7 (Resef, Carmeli, Tetrahedron 2001)): 18500 nM

Molecule: Microginin FR1
IC50 (mAPM): 6 nM | IC50 (ACE): 16000 nM | IC50 (cAPM): 1300 nM

Molecule: CC(C)[C@@H](C(=O)N[C@@H](Cc1ccc(O)cc1)C(=O)O)N(C)C(=O)[C@H](C)NC(=O)[C@@H](O)[C@@H](N)CCCCCCCCl [Microginin AL584]
Activity: APN (ni) (APN; ref 10 (Gesner-Apter, Carmeli, Tetrahedron 2008)): ni

Molecule: CC(C)C[C@@H](C(=O)N1CCC[C@H]1C(=O)N[C@@H](Cc1ccc(O)cc1)C(=O)O)N(C)C(=O)[C@H](Cc1ccc(O)cc1)NC(=O)[C@H](O)[C@H](N)CCCCCCCCl [Microginin KR787] (X7-Y[NMeL]PY-OH)
IC50 [1, 2]: 0.0057 µM | IC50 [1, 3]: 5.7 ± 0.1 µM

Molecule: CN[C@H](CCCCCCCCl)[C@@H](O)C(=O)N[C@@H](Cc1ccc(O)cc1)C(=O)N(C)[C@@H](CC(C)C)C(=O)N1CCC[C@H]1C(=O)N[C@@H](Cc1ccc(O)cc1)C(=O)OC [Microginin KR815] (X4-Y[NMeL]PY-OMe)
IC50 [1, 4]: 0.072 µM | IC50 [1, 5]: 72 ± 0.1 µM

Molecule: CN[C@H](CCCCCCC(Cl)Cl)[C@@H](O)C(=O)N[C@@H](Cc1ccc(O)cc1)C(=O)N(C)[C@@H](CC(C)C)C(=O)N1CCC[C@H]1C(=O)N[C@@H](Cc1ccc(O)cc1)C(=O)O [Microginin KR835] (X13-Y[NMeL]PY-OH)
IC50 [1, 2]: 0.0004 µM | IC50 [1, 3]: 0.4 ± 0.2 µM

Molecule: CCCCC[C@H](N)[C@H](O)C(=O)N[C@H](C(=O)N(C)[C@H](C(=O)N(C)[C@@H](Cc1ccc(O)cc1)C(=O)N[C@@H](Cc1ccc(O)cc1)C(=O)O)[C@@H](C)CC)C(C)C [Nostoginin BN741] (X17-V[NMeI][NMeY]Y-OH)
IC50 (APN; ref 8 (Ploutno, Carmeli, Tetrahedron 2002)): 1300 nM

IC50 ([1]; Table 4, substrate L-leucine-p-nitroanilide, Tris-HCl pH 7.0, 37 °C, read-out: IC50 in μM ± SD): 7.5 ± 0.1 µM | IC50 ([1]; Table S1, source 14 = this manuscript, heading: Activity: APM, read-out: Activity: APM): 7.5 µM
Molecule: CCCCCCC[C@@H](NC)[C@@H](O)C(=O)N[C@@H](Cc1ccc(O)cc1)C(=O)N(C)[C@@H](CC(C)C)C(=O)N1CCC[C@H]1C(=O)O [Microginin KR604]

Molecule: CCCCCCCC(N)C(O)C(=O)NC(C(=O)N1CCCC1C(=O)NC(Cc1ccc(O)cc1)C(=O)NC(Cc1ccc(O)cc1)C(=O)O)C(C)O (stereo not shown) [Microginin FR3] (X8-TPYY-OH; configuration not given here)
IC50 [1, 4]: 0.0062 µM | IC50 [1, 5]: 6.2 ± 0.03 µM

Molecule: CCCCCCCC(NC)C(O)C(=O)NC(C(=O)N1CCCC1C(=O)NC(Cc1ccc(O)cc1)C(=O)NC(Cc1ccc(O)cc1)C(=O)O)C(C)O (stereo not shown) [Microginin FR4] (X11-TPYY-OH; configuration not given here)
IC50 [1, 2]: 0.0018 µM | IC50 [1, 3]: 1.8 ± 0.04 µM
